Data from patent US20110086870A1, “Combination Therapy” (AstraZeneca AB, priority 2003, published 2011).

Key:
[1] = system: human LS-174T colon tumour xenografts; experiment: Human LS-174T colon tumour xenografts in Nude mice, test (a) 5-FU+ZD6474; type: in vivo; conditions: for Inhibition of Control Tumour Growth at day 13 / Regressions: number of tumours which had regressed by ≧10% in volume by day 13, compared with pre-treatment volume on day 0: ZD6474 25 mg/kg/day p.o. d 0-13, 5-FU 75 mg/kg i.v. d 0 and 7; for Inhibition of Control Tumour Growth at day 13: versus vehicle control; for Regressions: number of tumours which had regressed by ≧10% in volume by day 13, compared with pre-treatment volume on day 0: regressed tumours/tumours in group; for tumour regressions: share of tumours regressed by day 13, same doses as the table
Experimental: 10^7 LS-174T tumour cells in 0.2 ml of serum free Roswell Park Memorial Institute (RPMI)-1640 medium were injected subcutaneously (s.c.) into the flanks of 10 athymic (nu/nu genotype) mice. When tumour sizes reached 700-1000 mm^3 (3-4 weeks), tumours were surgically excised and smaller tumour fragments thereof (20-30 mg) were implanted s.c. in the right flank of 120 Nude mice. When tumours reached a volume of 100 to 200 mm^3 (14-16 days after the graft), mice were randomized into groups (13-15 per group) and treatment started.
• The control group (Group 1) received a daily oral (p.o.) administration of ZD6474 vehicle for 14 consecutive days (day 0-13) combined with two intravenous (i.v.) injections of saline (the vehicle for 5-FU) on day 0 and 7. • For Group 2, the treatments consisted of a daily p.o. administration of ZD6474 alone at 25 mg/kg/administration for 14 consecutive days (day 0-13) combined with two i.v. injections of saline (the vehicle for 5-FU) on day 0 and 7. ZD6474 was prepared as a suspension in 1% polysorbate 80 (i.e. a 1% (v/v) solution of polyoxyethylene (20) sorbitan mono-oleate in deionised water). • Group 3 received two i.v. injections of 5-FU at 75 mg/kg/injection, on day 0 and 7, combined with a daily p.o. administration of ZD6474 vehicle for 14 consecutive days (day 0-13). • Group 4 received daily p.o. administration of ZD6474 at 25 mg/kg/administration for 14 consecutive days (day 0-13) combined with two i.v. injections of 5-FU at 75 mg/kg/injection, on day 0 and 7.
The administration volume of ZD6474 was 10.0 ml/kg (200 μl for a 20 g mouse). The injection volume of 5-FU was 10.0 ml/kg (200 μl for a 20 g mouse).
Tumor volumes (mm^3) were assessed at least twice weekly by bilateral Vernier caliper measurement and, taking length to be the longest diameter across the tumor and width the corresponding perpendicular, calculated using the formula (π/6)×(length×width)×the square root of (length×width). Growth inhibition from the start of treatment was assessed by comparison of the differences in tumor volume between control and treated groups. For all mice, the study was stopped when tumours reached 2,000 mm^3 For all mice, the tumours were excised and weights recorded upon termination of the study.

[2] = system: human LS-174T colon tumour xenografts; experiment: Human LS-174T colon tumour xenografts in Nude mice, test (b) CPT-11+ZD6474; type: in vivo; conditions: ZD6474 25 mg/kg/day p.o. d 0-20, CPT-11 20 mg/kg i.v. d 0, 7 and 14
Experimental: • The control group (Group 1) received a daily oral (p.o.) administration of ZD6474 vehicle for 14 consecutive days (day 0-13) combined with two intravenous (i.v.) injections of saline (the vehicle for CPT-11) on day 0 and 7. […]
Tumor volumes (mm^3) were assessed at least twice weekly by bilateral Vernier caliper measurement and, taking length to be the longest diameter across the tumor and width the corresponding perpendicular, calculated using the formula (π/6)×(length×width)×square root of (length×width). Growth inhibition from the start of treatment was assessed by comparison of the differences in tumor volume between control and treated groups. For all mice, the study was stopped when tumours reached 2,000 mm^3 For all mice, the tumours were excised and weights recorded upon termination of the study.

SMILES | Inhibition of Control Tumour Growth at day 13 [1] [%] | Regressions: number of tumours which had regressed by ≧10% in volume by day 13, compared with pre-treatment volume on day 0 [1] | tumour regressions [1] [%] | mean tumour volume on day 20 [2] [mm^3]
O=c1[nH]cc(F)c(=O)[nH]1 [5-FU, 5-fluorouracil, reference compound] | 68 | 6/15 | 40 | –
COc1cc2c(Nc3ccc(Br)cc3F)ncnc2cc1OCC1CCN(C)CC1 [ZD6474, 4-(4-bromo-2-fluoroanilino)-6-methoxy-7-(1-methylpiperidin-4-ylmethoxy)quinazoline] | 80 | 5/15 | 33 | 475
